Results taken from US9402837B2, “Method for the treatment of neurological disorders by enhancing the activity of β-glucocerebrosidase” (Amicus Therapeutics, Inc., priority 2006, dated 2016).
Counter-ions that a name gives are not always drawn.

Key:
[1] = Phase I pharmacokinetics of oral IFG tartrate in healthy volunteers; format: in vivo, human; conditions: for accumulation after repeated doses: multiple-dose study, 7 days oral, Day 1 vs Day 7
Procedure: (§1) In a first-in-human single ascending dose study (1a), doses of 8, 25, 75, 150 (two cohorts), and 300 mg were administered (6 active, 2 placebo in each cohort). In a multiple ascending dose study (1b), doses of 25, 75, and 225 mg were administered daily for seven days (6 active, 2 placebo in each cohort). In both studies, of the eight subjects in each group; six were randomized to receive IFG tartrate, and two subjects received placebo. Subjects were confined from the evening of day-1 until 24 hrs after completion of dosing. In the phase 1a study subjects returned at 48 hrs (PK sampling) and 7 days (safety follow-up) following dosing. In the phase 1b study subjects returned at 48 h (PD sampling), 7 days (PD sampling and safety follow-up), and 14 days (PD sampling) following the last dose
Subjects were healthy male and female volunteers between 19 and 55 years of age (inclusive) consisting of members of the community at large.
Blood samples (10 mL each) were collected in blood collection tubes containing EDTA before dosing was determined at regular intervals for the phas 1a during 48 hr following dosing. In the phase 1b study a full IFG tartrate pharmacokinetic profile was determined for 24 hr following the first dose, Cmin values were obtained pre-dose on day 6 and 7, and another full profile was determined for 24 hr following the final, day 7, dose.

[2] = Phase I safety and tolerability in healthy volunteers; format: in vivo, human
Procedure: as §1
Safety was determined by evaluating vital signs, laboratory parameters (serum chemistry, hematology, and urinalysis), physical examination and by recording adverse events during the Treatment Period.
Safety data including laboratory evaluations, physical exams, adverse events, ECG monitoring and vital signs assessments were summarized by treatment group and point of time of collection. Descriptive statistics (arithmetic mean, standard deviation, median, minimum and maximum) were calculated for quantitative safety data as well as for the difference to baseline. Frequency counts were compiled for classification of qualitative safety data.

α-synuclein [3] = experiment: α-synuclein immunohistochemistry in transgenic mice over-expressing α-synuclein; format: in vivo
Procedure: 48 transgenic animals (male and female) were allocated to 6 groups (n=8) at an age of 5 to 6 weeks concerning baseline and 3 to 4 weeks, respectively concerning all other treatment groups at treatment start. One group of transgenic animals served as baseline group (5 weeks old) and was sacrificed untreated on day 0. One group of transgenic animals was treated with vehicle.
Mice (ages 3-4 weeks) were treated once daily (orally) at either 2 mg/kg; 20 mg/kg; or 200 mg/kg of IFG tartrate for 3 months. One group also was treated once every other day at 20 mg/kg.
Animals of the baseline group were sacrificed at an age of 5 weeks. All other animals were sacrificed at the end of the 3 months treatment period and blood for preparation of serum and macrophages as well as lung, brain and CSF were extracted. Therefore, all mice were sedated by standard inhalation anesthesia (Isofluran, Baxter). Cerebrospinal fluid was obtained by blunt dissection and exposure of the foramen magnum. Upon exposure, a Pasteur pipette was inserted to the approximate depth of 0.3-1 mm into the foramen magnum. CSF was collected by suctioning and capillary action until flow fully ceases. CSF was immediately frozen and kept at −80° C.
After CSF sampling, each mouse was placed in dorsal recumbence, the thorax was opened and a 26-gauge needle attached to a 1 cc syringe was inserted into the right cardiac ventricular chamber. Light suction was applied to the needle. Blood was separated into 2 parts. […] Mice were transcardially perfused with physiological (0.9%) saline and lung tissue as well as brain was rapidly removed. The lungs were rinsed in cold PBS (outside only) to remove blood and then they were quick frozen.
The brains were removed and hemisected. The right hemispheres of all mice were immersion fixed in freshly produced 4% paraformaldehyde/PBS (pH 7.4) for one hour at room temperature. Thereafter brains were transferred to a 15% sucrose PBS solution for 24 hours to ensure cryoprotection. On the next day brains were frozen in liquid isopentane and stored at −80° C. until used for histological investigations. To determine the effects of the IFG-tartrate treatment from 8 animals per group 10 μm-thick cryosections were cut for determination of alpha-synuclein pathology. All organs and tissues mentioned were sampled and from specific brain regions i.e. hippocampus, midbrain, frontal cortex and striatum of one hemibrain were extracted and frozen. The other brain half was processed for histological evaluation.
For evaluation of the number of α-synuclein positive cells and Lewy body like inclusions an immunohistochemical staining was carried out using the monoclonal human alpha-synuclein specific antibody (Alexis@; Cat#804-258-L001), dilution 1:5, detected with secondary Cy2 antibody (Jackson Immunoresearch®). The number of alpha-synuclein positive cells in five different layers, one slice per layer, was counted for evaluation in the whole hippocampus and cortex seperately.
Briefly, samples were washed for 10 min with PBS at room temperature, followed by fixing for 30 min at room temperature with 4% paraformaldehyde, followed by washing 2 times for 5 min each with PBS at room temperature. For Proteinase K-treated sections, sections were incubated in PBS containing 10 μg/ml proteinase-K for 10 minutes at room temperature. Next, samples were incubated for 15 min at room temperature with blocking solution to block endogenous peroxidase, followed by two more 5 min washes with PBS. Samples were then incubated for 60 min at room temperature with a blocking reagent to block non-specific binding, followed by two more 5 min washes with PBS. Samples were then incubated with M.O.M. diluent for 5 min at room temperature, followed by incubation with the primary antibody (dilution 1:5 in M.O.M. diluent) for 60 min with at room temperature. […]

GCase [4] = molecular target: GCase (Mus musculus (Mouse), UniProt P17439); experiment: In vivo GCase activity in normal mice upon treatment with IFG
GCase (Mus musculus (Mouse), UniProt P17439), sequence (P17439 20-515): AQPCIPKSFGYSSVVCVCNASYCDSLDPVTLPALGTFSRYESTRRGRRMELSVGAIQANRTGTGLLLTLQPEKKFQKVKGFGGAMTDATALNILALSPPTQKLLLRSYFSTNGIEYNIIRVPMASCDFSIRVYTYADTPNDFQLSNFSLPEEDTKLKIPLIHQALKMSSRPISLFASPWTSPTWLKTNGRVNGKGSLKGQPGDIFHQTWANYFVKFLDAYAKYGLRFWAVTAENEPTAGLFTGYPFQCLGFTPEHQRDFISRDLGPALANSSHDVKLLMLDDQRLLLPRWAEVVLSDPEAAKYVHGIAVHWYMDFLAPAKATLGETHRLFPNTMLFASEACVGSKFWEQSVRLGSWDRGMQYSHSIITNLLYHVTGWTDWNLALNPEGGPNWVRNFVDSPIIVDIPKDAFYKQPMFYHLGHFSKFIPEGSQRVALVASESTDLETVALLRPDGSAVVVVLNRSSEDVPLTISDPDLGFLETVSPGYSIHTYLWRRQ
Procedure: This Example provides information on the effects of isofagomine, a GCase-specific chaperone on mice. […] Ten male C57BL6 (25 g) mice per group were used. The drug was be given in the drinking water, therefore water consumption was monitored daily.
In the control group (0 mg/kg/day), the mice were dosed daily in the drinking water (no drug) and divided into two groups. Ten animals were euthanized after 4 weeks of treatment, blood was collected from the descending aorta or vena cava, and tissues were harvested and then necropsied.
In the test group, 10 mice were dosed daily in the drinking water with an administration aim of 200 mg/kg/day.
The blood samples were drawn into lithium heparin and spun for plasma. After bleeding, the spleen, lung, brain and liver were removed and placed into vials. The vials were put into dry ice for rapid freezing. The tissues and plasma were then analyzed for tissue levels of GCase.
Small portions of tissue were removed and added to 500 μl lysis buffer (20 mM sodium citrate and 40 mM disodium hydrogen phosphate, pH 4.0, including 0.1% Triton X-100). Tissues were then homogenized using a microhomogenizer for a brief time, followed by centrifugation at 10,000 rpm for 10 minutes at 4° C. Supernatants were transferred to a new tube and used for the enzyme assay.
The enhancement ratio is equal to the activity with the compound over the activity without the compound.

GCase [5] = molecular target: GCase (Homo sapiens (Human), UniProt P04062); experiment: GCase enzymatic activity in healthy volunteers receiving IFG; format: in vivo
GCase (Homo sapiens (Human), UniProt P04062), sequence (P04062 40-536): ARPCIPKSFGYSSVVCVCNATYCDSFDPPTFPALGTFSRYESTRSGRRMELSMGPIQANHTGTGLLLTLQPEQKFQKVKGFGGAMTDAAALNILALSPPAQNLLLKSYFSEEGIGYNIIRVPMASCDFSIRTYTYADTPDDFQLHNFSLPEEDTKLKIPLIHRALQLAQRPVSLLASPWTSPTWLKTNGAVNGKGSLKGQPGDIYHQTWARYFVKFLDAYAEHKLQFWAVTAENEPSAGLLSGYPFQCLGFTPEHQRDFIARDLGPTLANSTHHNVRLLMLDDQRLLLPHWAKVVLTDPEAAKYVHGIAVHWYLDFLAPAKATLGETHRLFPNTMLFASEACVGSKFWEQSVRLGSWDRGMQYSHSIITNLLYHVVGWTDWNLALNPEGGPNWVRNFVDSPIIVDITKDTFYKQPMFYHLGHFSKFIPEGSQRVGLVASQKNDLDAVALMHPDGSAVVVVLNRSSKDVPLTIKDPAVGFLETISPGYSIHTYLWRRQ
Procedure: as §1
GCase activity was determined pre-dose on days 1, 3, 5, 7, 9, 14, and 21. Blood samples were cooled in an ice bath and centrifuged under refrigeration as soon as possible. Plasma samples were divided into two aliquots and stored at […] pending assay. At the end of the study, all samples were transferred to MDS Pharma Services Analytical Laboratories (Lincoln) for analysis.

α-synuclein [6] = experiment: α-synuclein accumulation in brains of V394L knock-in mice treated with CBE; format: in vivo; conditions: CBE daily i.p. for 30 days
Procedure: Mice homozygous for the point mutations D409H or V394L and expressing a low level of saposin C in a prosaposin knock-out background, were analyzed for accumulation of α-synuclein in the brain. These mice have been reported to accumulate glucosylceramide in the brain. Mice homozygous for the point mutations V394L only, were analyzed for α-synuclein accumulation with and without CBE treatment. […] Mice were administered CBE daily by interperitonally injection for 30 consequitive days ([…] calculated from the total weight of the mouse) and brains were analyzed by immunohistochemistry for accumulation of α-synuclein.
Brain tissue was frozen and fixed for immunohistochemistry with 4% paraformaldehyde and serial sections were co-labelled with anti-human α-synuclein (ab1903; Abcam, Cambridge, Mass.) and rabbit anti-ubiquitin (ab7780; Abcam, Cambridge, Mass.).

Row | systemic exposure via the oral route ([1]; healthy volunteers) | accumulation after repeated doses [1] | wild-type GCase activity dose-response (GCase [4]; mice treated with 0, 1, 10, or 100 mg/kg/day) | GCase levels in tissues (GCase [4]; normal C57BL6 mice, 200 mg/kg/day in drinking water, liver, spleen, brain and lung) | sex differences in pharmacokinetic parameters ([1]; repeated doses) | increase in GCase levels above baseline (GCase [5]; healthy volunteers, treatment period, dose-related, maximum reached) | GCase levels after removal of the drug (GCase [5]; two weeks after the last dose) | Compound | plasma AUC and Cmax versus administered dose ([1]; single-dose study) | serious adverse events ([2]; healthy volunteers, both Phase I studies) | tolerability ([2]; healthy volunteers, single (8-300 mg) and multiple (25-225 mg, 7 days) oral doses) | number of α-synuclein immunoreactive cells in the hippocampus versus vehicle (α-synuclein [3]; 2 mg/kg daily, 3 months) | age-accompanied increase of α-synuclein positive cell load versus baseline (α-synuclein [3]; 2 mg/kg, mean of cortex and hippocampus) | accumulation of Proteinase K-resistant α-synuclein aggregates (α-synuclein [3]; 20 mg/kg, 3 months, single responding animal) | α-synuclein pathology versus controls (α-synuclein [3]; 20 mg/kg, daily or every other day, 3 months) | qualitative α-synuclein immunostaining versus control animals (α-synuclein [3]; 2 and 20 mg/kg b.w. daily, 3 months, cortex and hippocampus) | α-synuclein pathology in the cortex (α-synuclein [3]; 3 months treatment) | adverse events most frequently reported ([2]; healthy adult subjects) | α-synuclein in the brain (α-synuclein [6])
1 | good systemic exposure | no unexpected accumulation | – | – | – | – | – | OC[C@H]1CNC[C@@H](O)[C@@H]1O [Isofagomine tartrate] | linearly correlated with administered dose | No serious adverse events occurred | generally well tolerated | reduced the number of immunoreactive cells in the hippocampus significantly | prevented mice from the age-accompanied increase of pathology | prevents the accumulation of these α-synuclein aggregates | not effective versus controls | strongly decreased background and decreased α-synuclein positive cell numbers in some | did not reach significance level in the cortex | – | –
2 | – | Minimal accumulation | linear dose-response increase | increased | no observable sex differences | approximately 3.5 fold | return to near baseline levels by day 21 | OC[C@H]1CNC[C@@H](O)[C@@H]1O [Isofagomine, (3R,4R,5R)-5-(hydroxymethyl)-3,4-piperidinediol] | – | – | – | – | – | – | – | – | – | contact dermatitis, headache, nausea, increased serum bilirubin, dizziness, scab, ocular hyperaemia, and puncture site pain | –
3 | – | – | – | – | – | – | – | O[C@H]1[C@H](O)[C@@H](O)[C@@H]2O[C@@H]2[C@@H]1O [CBE, conduritol-β-epoxide] | – | – | – | – | – | – | – | – | – | – | resulted in accumulation of α-synuclein in the brain
